Laboratory results taken from patent US4245107A, “Cephalosporin derivatives and process for preparing the same” (Asahi Kasei Kogyo Kabushiki Kaisha, priority 1974, dated 1981).
In brackets after ≈: the same amount, converted by molar mass. Like-named read-outs stand apart in the source and are kept apart here.

Key:
Format in all cases: cell-based
Escherichia coli, NIHJ = assay: MIC against Escherichia coli NIHJ
Pseudomonas aeruginosa = assay: MIC against Pseudomonas aeruginosa (strain not given)
Proteus rettgeri, ACR = assay: MIC against Proteus rettgeri ACR; settings: for MIC: Providencia rettgeri
Shigella sonnei E 33 = assay: MIC against Shigella sonnei E 33
[1] = tested on: Salmonella enteritidis gaertner; assay: MIC against Salmonella enteritidis gaertner
[2] = tested on: Staphylococcus aureus, MS 27; assay: MIC against Staphylococcus aureus MS 27
[3] = tested on: Klebsiella pneumoniae, ATCC 10031; assay: MIC against Klebsiella pneumoniae ATCC 10031
Escherichia coli, W 3630 = assay: MIC against Escherichia coli W 3630
[4] = tested on: Staphylococcus aureus, ATCC 6538 P; assay: MIC against Staphylococcus aureus ATCC 6538 P
[5] = tested on: Pseudomonas aeruginosa, IAM 1095; assay: MIC against Pseudomonas aeruginosa IAM 1095
Escherichia coli, RGN 14 = assay: MIC against Escherichia coli RGN 14; settings: Table 3
Proteus vulgaris, OX 19 = assay: MIC against Proteus vulgaris OX 19; settings: for minimum inhibitory concentration (MIC): Table 3
Enterobacter 0655 = assay: MIC against Enterobacter 0655
[6] = tested on: Escherichia coli, RGN 238; assay: MIC against Escherichia coli RGN 238; settings: Table 3
[7] = tested on: Gram-positive bacteria and Gram-negative bacteria; assay: antimicrobial / bacterium-inhibiting activity (in words)
[8] = Table 1, read-out: minimum inhibitory concentration (MIC)
[9] = Table 3, read-out: minimum inhibitory concentration (MIC)

In the case of CC(=O)OCC1=C(C(=O)O)N2C(=O)C(NC(=O)C[S+]([O-])c3cccs3)C2SC1 (single isomer, unassigned) [Comparative Example, 7-(2-thienylsulfinylacetamido)cephalosporanicacid, reference compound], the “minimum inhibitory concentration (MIC)” value (Escherichia coli, NIHJ; Table 1) is reported as 6.3 µg/mL (≈ 14.2 µM), the “minimum inhibitory concentration (MIC)” value (Pseudomonas aeruginosa; Table 1) is reported as 100 mg/L (≈ 225 µM) and the “minimum inhibitory concentration (MIC)” value (Proteus rettgeri, ACR; Table 1) is reported as 100 µg/mL (≈ 225 µM). For the same compound, the “minimum inhibitory concentration (MIC)” value (Shigella sonnei E 33; Table 1) was 25 µg/mL (≈ 56.2 µM), the “minimum inhibitory concentration (MIC)” value ([1]; Table 1) was 12.5 µg/mL (≈ 28.1 µM) and the “minimum inhibitory concentration (MIC)” value ([2]; Table 1, ATCC MS 27) was 6.3 µg/mL (≈ 14.2 µM). For the same compound, the “minimum inhibitory concentration (MIC)” value ([3]; Table 1) was 6.3 µg/mL (≈ 14.2 µM), the “minimum inhibitory concentration (MIC)” value (Escherichia coli, W 3630; Table 1) was 50 µg/mL (≈ 112 µM) and the “minimum inhibitory concentration (MIC)” value ([4]; Table 1, ATCC 6538 P) was 1.6 µg/mL (≈ 3.6 µM).
CC(=O)OCC1=C(C(=O)O)N2C(=O)C(NC(=O)C[S+]([O-])c3cccs3)C2SC1 (single isomer, unassigned) [Example 1, 7-(2-thienylsulfinylacetamido)cephalosporanic acid] was tested, and the “minimum inhibitory concentration (MIC)” value (Escherichia coli, NIHJ; Table 1) was 1.6 µg/mL (≈ 3.6 µM), the MIC (Pseudomonas aeruginosa; [8]) was 100 mg/L (≈ 225 µM) and the MIC (Proteus rettgeri, ACR; [8]) was 100 mg/L (≈ 225 µM). The “minimum inhibitory concentration (MIC)” value (Shigella sonnei E 33; Table 1) was 3.1 µg/mL (≈ 6.97 µM), the “minimum inhibitory concentration (MIC)” value ([1]; Table 1) was 1.6 µg/mL (≈ 3.6 µM) and the “minimum inhibitory concentration (MIC)” value ([2]; Table 1, ATCC MS 27) was 1.6 µg/mL (≈ 3.6 µM). For the same compound, the “minimum inhibitory concentration (MIC)” value ([3]; Table 1) was 0.8 µg/mL (≈ 1.8 µM) and the MIC ([4]; ATCC6538, Table 1, ATCC 6538 P, read-out: minimum inhibitory concentration (MIC)) was 0.8 mg/L (≈ 1.8 µM).
For CC(=O)OCC1=C(C(=O)O)N2C(=O)C(NC(=O)C[S+]([O-])c3ccccc3)C2SC1 (single isomer, unassigned) [Example 19, 7-(phenylsulfinylacetamido)cephalosporanic acid], the “minimum inhibitory concentration (MIC)” value (Escherichia coli, NIHJ; Table 3) was 1.6, the MIC (Proteus rettgeri, ACR; [9]) was 100 mg/L (≈ 228 µM) and the MIC ([5]; IAM1095, Table 3, read-out: minimum inhibitory concentration (MIC)) was 100 mg/L (≈ 228 µM). For the same compound, the “minimum inhibitory concentration (MIC)” value (Escherichia coli, RGN 14) was 12.5, the “minimum inhibitory concentration (MIC)” value (Shigella sonnei E 33; Table 3) was 6.3 and the “minimum inhibitory concentration (MIC)” value (Proteus vulgaris, OX 19) was 1.6. For the same compound, the “minimum inhibitory concentration (MIC)” value ([1]; Table 3) was 3.2, the “minimum inhibitory concentration (MIC)” value ([2]; Table 3, MS 27) was 0.8 and the “minimum inhibitory concentration (MIC)” value ([3]; Table 3) was 1.6. The MIC (Enterobacter 0655; [9]) was 100 mg/L (≈ 228 µM) and the “minimum inhibitory concentration (MIC)” value ([4]; Table 3, 6538 P) was 0.2.
For CC(=O)OCC1=C(C(=O)O)N2C(=O)C(NC(=O)C[S+]([O-])c3ccccc3)C2SC1 (single isomer, unassigned) [comparative product, 7-(Phenylsulfinylacetamido)cephalosporanic acid, reference compound], the “minimum inhibitory concentration (MIC)” value (Escherichia coli, NIHJ; Table 3) was 100, the “minimum inhibitory concentration (MIC)” value (Proteus rettgeri, ACR; Table 3) was 100 and the “minimum inhibitory concentration (MIC)” value [6] was 100. The “minimum inhibitory concentration (MIC)” value ([5]; Table 3) was 100, the “minimum inhibitory concentration (MIC)” value (Escherichia coli, RGN 14) was 100 and the “minimum inhibitory concentration (MIC)” value (Shigella sonnei E 33; Table 3) was 100. The “minimum inhibitory concentration (MIC)” value (Proteus vulgaris, OX 19) was 100, the “minimum inhibitory concentration (MIC)” value ([1]; Table 3) was 50 and the “minimum inhibitory concentration (MIC)” value ([2]; Table 3, MS 27) was 50. The “minimum inhibitory concentration (MIC)” value ([3]; Table 3) was 50, the “minimum inhibitory concentration (MIC)” value (Escherichia coli, W 3630; Table 3) was 100 and the “minimum inhibitory concentration (MIC)” value (Enterobacter 0655; Table 3) was 100. The “minimum inhibitory concentration (MIC)” value ([4]; Table 3, 6538 P) was 25.
Cc1nnc(SCC2=C(C(=O)O)N3C(=O)C(NC(=O)C[S+]([O-])c4cccs4)[C@H]3SC2)s1 (stereo partly drawn) [Example 3, 7-(2-thienylsulfinylacetamido)-3-(5-methyl-1,3,4-thiadiazol-2-ylthiomethyl)-3-cephem-4-carboxylic acid] was tested, and the “minimum inhibitory concentration (MIC), in words” value ([7]; versus product similarly derived from the compound of the Comparative Example) was “much superior”.
For Cn1nnnc1SCC1=C(C(=O)[O-])N2C(=O)C(NC(=O)C[S+]([O-])c3cccs3)[C@H]2SC1.[Na+] (stereo partly drawn) [Example 4, sodium 7-(2-thienylsulfinylacetamido)-3-(1-methyl-1H-tetrazol-5-ylthiomethyl)-3-cephem-4-carboxylate], the bacterium-inhibiting activity ([7]; versus product derived in the same manner from 2-thienylsulfinylacetic acid having [α]D^22° of -9.2°) was “much superior”.
In the case of O=C(C[S+]([O-])c1cccs1)NC1C(=O)N2C(C(=O)[O-])=C(C[n+]3ccccc3)CSC12 (stereo not drawn) [Example 6, 7-(2-thienylsulfinylacetamido)-3-(1-pyridiniummethyl)-3-cephem-4-carboxylate], the antimicrobial activity [7] is reported as “excellent”.
For CC1=C(C(=O)O)N2C(=O)C(NC(=O)C[S+]([O-])c3cccs3)[C@H]2SC1 (stereo partly drawn) [Example 7, 7-(2-thienylsulfinylacetamido)-3-methyl-3-cephem-4-carboxylic acid], the microbial activity ([7]; versus product from 2-thienylsulfinylacetic acid having a negative specific rotary power) was “much superior”.
For CC(=O)OCC1=C(C(=O)O)N2C(=O)C(NC(=O)C[S+]([O-])c3ccncc3)C2SC1 (stereo not drawn) [Example 10, 7-(4pyridylsulfinylacetamido)cephalosporanic acid], the MIC (Escherichia coli, NIHJ; Table 2) was 0.8 mg/L (≈ 1.82 µM), the MIC (Proteus rettgeri, ACR; Table 2, read-out: MIC) was 100 mg/L (≈ 228 µM) and the MIC (Shigella sonnei E 33; Shigella sonnei, E33, Table 2) was 6.3 mg/L (≈ 14.3 µM). It also gave an MIC (Proteus vulgaris, OX 19; OX19, Table 2) of 1.6 mg/L (≈ 3.64 µM), an MIC ([1]; Salmonella enterica, ENTERITIDIS, Table 2) of 3.2 mg/L (≈ 7.28 µM) and an MIC ([2]; MS27, Table 2, MS 27) of 1.6 mg/L (≈ 3.64 µM). For the same compound, the MIC ([3]; ATCC10031, Table 2) was 0.8 mg/L (≈ 1.82 µM), the MIC (Escherichia coli, W 3630; W3630, Table 2) was 12.5 mg/L (≈ 28.4 µM) and the MIC ([4]; ATCC6538, Table 2, ATCC 6538 P, read-out: MIC) was 0.4 mg/L (≈ 0.91 µM).
